Experimental data taken from PMC3676766, “New Radioligands for Describing the Molecular Pharmacology of MT1 and MT2 Melatonin Receptors” (International Journal of Molecular Sciences, 2013).
Values joined by “and” are separate entries in the source; they are usually repeats but may differ in a detail not shown here. Equal values may be shown once. Read-outs that look alike come from different tables or passages of the source. Values belong to the molecule of their own block, whether it stands above or below them.

Columns and labels:
hMT2 [1] = biological target: T1, hMT2 (Homo sapiens, UniProt P49286); assay: Saturation binding of iodinated radioligands, CHO-K1-hMT2 membranes; details: Scatchard; for Bmax: saturation
T1 construct: expressed in transfected cells; membranes or whole cells
T1 sequence (P49286 1-362): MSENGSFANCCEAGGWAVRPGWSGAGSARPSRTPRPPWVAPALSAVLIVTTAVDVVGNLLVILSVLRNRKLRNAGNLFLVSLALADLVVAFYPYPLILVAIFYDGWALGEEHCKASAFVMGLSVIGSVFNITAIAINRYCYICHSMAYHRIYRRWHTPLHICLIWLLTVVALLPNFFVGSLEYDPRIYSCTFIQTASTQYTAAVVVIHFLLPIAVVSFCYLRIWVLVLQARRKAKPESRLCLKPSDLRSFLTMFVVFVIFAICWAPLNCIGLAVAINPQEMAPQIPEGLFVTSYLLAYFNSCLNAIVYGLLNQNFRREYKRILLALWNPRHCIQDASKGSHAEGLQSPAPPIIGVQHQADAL
Method: (§1) CHO-K1 cell lines stably expressing the human MT1 or MT2 receptors were grown to confluence, harvested in PBS buffer (Gibco, Invitrogen, Saint-Aubin, France) containing 5 mM EDTA, and centrifuged at 1,000 g for 20 min (4 °C). The resulting pellet was suspended in 5 mM Tris/HCl (pH 7.4) containing 2 mM EDTA and homogenized using Kinematicapolytron. The homogenate was then centrifuged (20,000 g, 30 min, 4 °C) and the resulting pellet suspended in 75 mM Tris/HCl (pH 7.4) containing 2 mM EDTA and 12.5 mM MgCl2. Protein content was determined according to Bradford using the Bio-Rad kit (Bio-Rad SA, Ivry-sur-Seine, France). Aliquots of membrane preparations were stored in re-suspension buffer (75 mM Tris/HCl pH 7.4, 2 mM EDTA, 12.5 mM MgCl2) at −80 °C until use.
The assays were performed in 96-well plates in 250 μL binding buffer (50 mM Tris/HCl pH 7.4, 5 mM MgCl2, 1 mM EDTA, plus BSA 0.1% for [^125I]-DIV880). The membranes, hMT1 and hMT2, were used at a final concentration of 30 μg of proteins/mL for all radioactive compounds. For all protocols, the reaction was stopped by rapid filtration through GF/B unifilters (PEI 0.1% treated for [^125I]-DIV880), followed by three successive washes with ice-cold buffer (50 mM Tris/HCl, pH 7.4).
(§2) The data were analyzed using the program PRISM (GraphPad Software Inc., San Diego, CA, USA). For the saturation assay, the binding site density (Bmax) and dissociation constant for the radioligand (Kd) were calculated according to the Scatchard method.

hMT1 [2] = biological target: T2, hMT1 (Homo sapiens, UniProt P48039); assay: Saturation binding of iodinated radioligands, CHO-K1-hMT1 membranes; details: Scatchard
T2 construct: expressed in transfected cells; membranes or whole cells
Method: as §1
The assays were performed in 96-well plates in 250 μL binding buffer (50 mM Tris/HCl pH 7.4, 5 mM MgCl2, 1 mM EDTA, plus BSA 0.1% for [^125I]-DIV880). The membranes, hMT1 and hMT2, were used at a final concentration of 30 μg of proteins/mL for all radioactive compounds. […]
as §2

hMT1 [3] = biological target: T2, hMT1; assay: [35S]-GTPγS binding assay, hMT1; type: biochemical; details: for [35S]-GTPγS Emax (%) / Emax: percentage of melatonin (1 μM = 100%); for EC50: mean ± SEM, read-out: [35S]-GTPγS pEC50 (converted)
Method: (§3) CHO-K1 cell lines stably expressing the human MT1 or MT2 receptors were grown to confluence, harvested in PBS buffer (Gibco, Invitrogen, Saint-Aubin, France) containing 5 mM EDTA, and centrifuged at 1,000 g for 20 min (4 °C). The resulting pellet was suspended in 5 mM Tris/HCl (pH 7.4) containing 2 mM EDTA and homogenized using Kinematicapolytron. […] Protein content was determined according to Bradford using the Bio-Rad kit (Bio-Rad SA, Ivry-sur-Seine, France).
(§4) For the [^35S]-GTPγS binding assay, the membranes and compounds were diluted in the binding buffer (20 mM Hepes pH 7.4, 100 mM NaCl, 3 mM MgCl2, 3 μM GDP) in the presence of 20 μg/mL saponin in order to enhance the agonist-induced stimulation. Incubation was started by adding 0.1 nM [^35S]-GTPγS to the membranes and ligands in a final volume of 250 μL and allowed to continue for 60 min at room temperature. Non-specific binding was assessed using non-radiolabeled GTPγS (10 μM). Reactions were stopped by rapid filtration through GF/B unifilters pre-soaked with distilled water, followed by three successive washes with ice-cold buffer.

hMT2 [4] = biological target: T1, hMT2; assay: [35S]-GTPγS binding assay, hMT2; type: biochemical; details: for Emax / [35S]-GTPγS Emax (%): percentage of melatonin (1 μM = 100%); for EC50: mean ± SEM, read-out: [35S]-GTPγS pEC50 (converted)
Method: as §3, §4

hMT2 [5] = biological target: T1, hMT2; assay: HTRF (TR-FRET) cAMP assay, CHO-K1 cells expressing hMT2; type: cell-based; details: 5 μM forskolin; for TR-FRET-cAMP Emax (%) / EC50: hMT2; for EC50: read-out: TR-FRET-cAMP pEC50 (converted)
Method: (§5) Cellular cAMP production was measured using cAMP dynamic HTRF kits (Cisbio Bioassays, Bedford, MA, USA) according to the manufacturer’s instructions. CHO-K1 cells stably expressing the hMT1 or hMT2 receptor were grown to confluence, harvested in PBS buffer containing 5 mM EDTA, and centrifuged at 100× g for 10 min (4 °C). […] Next, 15 μL of cAMP-d2 conjugate and 15 μL of anti-cAMP-EuK conjugate in lysis buffer were incubated for 30 min at room temperature. […] Non-specific binding was assessed using 100 μM non-labeled cAMP. The data were analyzed using the program PRISM to yield the EC50 and Emax.

hMT1 [6] = biological target: T2, hMT1; assay: HTRF (TR-FRET) cAMP assay, CHO-K1 cells expressing hMT1; type: cell-based; details: 5 μM forskolin; for EC50: read-out: TR-FRET-cAMP pEC50 (converted)
Method: as §5

[7] = tested on: standard set of receptors and a small number of enzymatic targets; assay: Standard selectivity procedure (Cerep panel); type: binding; details: at 10 μM, cold compounds, transporters, channels, caspase-3, EGFR kinase, PKCα
Excerpt: […]

hMT2 [8] = biological target: T1, hMT2; assay: [125I]-2IMLT competition binding, CHO-K1 membranes, hMT2; details: for Ki: hMT2; for Difference in affinity MT2 versus MT1: Ki/pKi better for MT2 than for MT1
Method: as §1
(§6) The assays were described previously. […] The results were expressed as the inhibition constant Ki, taking into account the concentration of radioligand used in each experiment. Non-specific binding was defined using 10 μM melatonin. The reaction was stopped by rapid filtration through GF/B unifilters, followed by three successive washes with ice-cold buffer. The data were analyzed using the program PRISM (GraphPad Software Inc., San Diego, CA, USA).

hMT1 [9] = biological target: T2, hMT1; assay: [125I]-2IMLT competition binding, CHO-K1 membranes, hMT1; details: 20 pM [125I]-2IMLT, 2 h 37 °C, mean ± SEM, read-out: Affinity pKi (converted)
Method: as §1, §6

[10] = hMT1, read-out: [35S]-GTPγS Emax (%)
[11] = CHO-K1, read-out: TR-FRET-cAMP Emax (%), hMT2
[12] = CHO-K1, read-out: TR-FRET-cAMP Emax (%), hMT1
[13] = 20 pM [125I]-2IMLT, 2 h 37 °C, mean ± SEM, read-out: Affinity pKi (converted)
[14] = CHO-K1, hMT2, read-out: TR-FRET-cAMP Emax (%)

T2 sequence (P48039 whole entry): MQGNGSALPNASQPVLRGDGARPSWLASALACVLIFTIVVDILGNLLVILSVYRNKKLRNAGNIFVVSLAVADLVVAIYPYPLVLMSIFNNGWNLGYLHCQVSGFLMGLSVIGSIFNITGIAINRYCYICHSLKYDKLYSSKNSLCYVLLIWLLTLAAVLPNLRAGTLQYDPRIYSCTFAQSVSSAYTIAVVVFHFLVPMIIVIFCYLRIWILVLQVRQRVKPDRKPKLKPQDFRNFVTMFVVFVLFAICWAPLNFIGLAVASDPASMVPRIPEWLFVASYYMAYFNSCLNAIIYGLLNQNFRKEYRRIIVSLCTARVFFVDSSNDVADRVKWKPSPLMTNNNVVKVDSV

SMILES: COc1ccc2[nH]c([125I])c(CCNC(C)=O)c2c1 [[^125I]-2IMLT, 2-[^125I]-iodomelatonin]
Bmax (hMT2 [1]): 1,998 ± 318 fmol/mg of protein | Bmax (hMT1 [2]): 688 fmol/mg of protein and 688 ± 153 fmol/mg of protein

SMILES: COc1ccc2[nH]cc(CCNC(=O)CI)c2c1 [SD6, N-[2-(5-methoxy-1H-indol-3-yl)ethyl]iodoacetamide]
[35S]-GTPγS Emax (%) (hMT1 [3]; hMT1): 115 ± 10% | Emax (hMT1 [3]; [10]): > 100% | Emax (hMT2 [4]): > 100% | [35S]-GTPγS Emax (%) (hMT2 [4]): 114 ± 16% | Emax (hMT2 [5]; [11]): ~100% | TR-FRET-cAMP Emax (%) (hMT2 [5]): 103 ± 1% | Bmax (hMT1 [2]): 276 fmol/mg of protein | Emax (hMT1 [6]; [12]): ~100% | TR-FRET-cAMP Emax (%) (hMT1 [6]; hMT1): 103 ± 10%

SMILES: COc1ccc2[nH]c(-c3cccc4ccccc34)c(CCNC(=O)C[125I])c2n1 [[^125I]-S70254]
pKd (hMT2 [1]; saturation 0.01–2 nM radioligand): 9.61 ± 0.14 | Bmax (hMT2 [1]): 1,778 ± 87 fmol/mg of protein

SMILES: COc1cc(Br)c(Cc2cc(OC)c(OC)cc2CC(=O)OC(C)(C)C)cc1OC [DIV879, Tert-butyl 2-(2-[(2-bromo-4,5-dimethoxyphenyl)methyl]-4,5-dimethoxyphenyl) Acetate]
EC50 (hMT1 [3]; hMT1): > 10 µM | EC50 (hMT2 [4]): 0.0123 µM | Emax (hMT2 [4]): 58 ± 2% | Difference in affinity MT2 versus MT1 (hMT2 [8]): at least 2 logs | Ki (hMT2 [8]; [13]): 0.00724 µM | Ki (hMT1 [9]): 0.562 µM

Now from value to molecule:

[35S]-GTPγS Emax (%) (hMT1 [3]; hMT1): 108 ± 3% | Emax (hMT1 [3]; read-out: [35S]-GTPγS Emax (%), hMT1): > 100% | [35S]-GTPγS Emax (%) (hMT2 [4]): 121 ± 13% | Emax (hMT2 [5]; [11]): ~100% | Emax (hMT1 [6]; [12]): ~100%
SMILES: COc1ccc2[nH]c(I)c(CCNC(C)=O)c2c1 [2IMLT, 2-iodomelatonin, reference compound]

EC50 (hMT1 [3]; hMT1): 0.0794 µM | Emax (hMT1 [3]; [10]): 15 ± 2% | effect on selectivity panel targets [7]: less than 20% | EC50 (hMT2 [4]): 0.00204 µM | Emax (hMT2 [4]): 43 ± 1% | Ki (hMT2 [8]; [13]): 0.00186 µM | Emax (hMT2 [5]; [14]): 73% | TR-FRET-cAMP Emax (%) (hMT2 [5]): 76.5 ± 1% | EC50 (hMT2 [5]): 0.0339 µM | Ki (hMT1 [9]): 0.661 µM | Emax (hMT1 [6]; CHO-K1, hMT1, read-out: TR-FRET-cAMP Emax (%)): 78 ± 12% | EC50 (hMT1 [6]; hMT1): 1.45 µM
SMILES: COc1ccc2[nH]c(-c3cccc4ccccc34)c(CCNC(=O)CI)c2n1 [S70254, 2-iodo-N-2-[5-methoxy-2-(naphthalen-1-yl)-1H-pyrrolo[3,2-b]pyridine-3-yl] Acetamide]

EC50 (hMT1 [3]; hMT1): 1.26 µM | Emax (hMT1 [3]; [10]): 10 ± 1% | effect on selectivity panel targets [7]: less than 20% | EC50 (hMT2 [4]): 0.0107 µM | Emax (hMT2 [4]): 67 ± 8% | Difference in affinity MT2 versus MT1 (hMT2 [8]): 2 logs | Ki (hMT2 [8]; [13]): 0.00955 µM | Ki (hMT2 [8]; approximate range in text, read-out: affinity for MT2 (range given)): ~0.01 µM | Emax (hMT2 [5]; [14]): 97 ± 1% | EC50 (hMT2 [5]): 0.0162 µM | Ki (hMT1 [9]): 0.832 µM | EC50 (hMT1 [6]; hMT1): > 10 µM
SMILES: COc1cc(I)c(Cc2cc(OC)c(OC)cc2CC(=O)OC(C)(C)C)cc1OC [DIV880]
